Results as given in ChEMBL document CHEMBL2321780, “Fluorinated quinazolinones as potential radiotracers for imaging kinesin spindle protein expression” (2013).
Activity calls are given as the source filed them. The rule behind the calls is not given here.

Key:
PC-3 [1] = test: Cell cycle arrest in human PC3 cells assessed as accumulation in G0/G1 phase at 100 nM after 24 hrs by FACS analysis (reference value: 32.6%); type: functional
PC-3 [2] = test: Cell cycle arrest in human PC3 cells assessed as accumulation in S phase at 100 nM after 24 hrs by FACS analysis (reference value: 14.2%); type: functional
MCF7 [3] = test: Nonspecific cytotoxicity against human MCF7 cells after 44 hrs by MTT assay; type: functional; conditions: MCF7, 44 h
MCF7 [4] = test: Cell cycle arrest in human MCF7 cells assessed as accumulation in S phase at 100 nM after 24 hrs by FACS analysis (reference value: 19.6%); type: functional
MCF7 [5] = test: Cell cycle arrest in human MCF7 cells assessed as accumulation in G0/G1 phase at 100 nM after 24 hrs by FACS analysis (reference value: 48.2%); type: functional
SK-OV-3 [6] = test: Cell cycle arrest in human SKOV3 cells assessed as phospho-histone3 level at 100 nM after 24 hrs by immunostaining analysis; type: functional
SK-OV-3 [7] = test: Cell cycle arrest in human SKOV3 cells assessed as accumulation in G2/M phase at 100 nM after 24 hrs by FACS analysis (reference value: 21.8%); type: functional
PC-3 [8] = test: Cell cycle arrest in human PC3 cells assessed as accumulation in G2/M phase at 100 nM after 24 hrs by FACS analysis (reference value: 26.3%); type: functional
[9] = target: T1, Kinesin-1 heavy chain (Homo sapiens) (UniProt P33176); test: Inhibition of KNH (unknown origin)-mediated ATP hydrolysis assessed as residual activity at 1 uM after 10 to 20 mins by spectrophotometric analysis
T1 sequence (whole entry): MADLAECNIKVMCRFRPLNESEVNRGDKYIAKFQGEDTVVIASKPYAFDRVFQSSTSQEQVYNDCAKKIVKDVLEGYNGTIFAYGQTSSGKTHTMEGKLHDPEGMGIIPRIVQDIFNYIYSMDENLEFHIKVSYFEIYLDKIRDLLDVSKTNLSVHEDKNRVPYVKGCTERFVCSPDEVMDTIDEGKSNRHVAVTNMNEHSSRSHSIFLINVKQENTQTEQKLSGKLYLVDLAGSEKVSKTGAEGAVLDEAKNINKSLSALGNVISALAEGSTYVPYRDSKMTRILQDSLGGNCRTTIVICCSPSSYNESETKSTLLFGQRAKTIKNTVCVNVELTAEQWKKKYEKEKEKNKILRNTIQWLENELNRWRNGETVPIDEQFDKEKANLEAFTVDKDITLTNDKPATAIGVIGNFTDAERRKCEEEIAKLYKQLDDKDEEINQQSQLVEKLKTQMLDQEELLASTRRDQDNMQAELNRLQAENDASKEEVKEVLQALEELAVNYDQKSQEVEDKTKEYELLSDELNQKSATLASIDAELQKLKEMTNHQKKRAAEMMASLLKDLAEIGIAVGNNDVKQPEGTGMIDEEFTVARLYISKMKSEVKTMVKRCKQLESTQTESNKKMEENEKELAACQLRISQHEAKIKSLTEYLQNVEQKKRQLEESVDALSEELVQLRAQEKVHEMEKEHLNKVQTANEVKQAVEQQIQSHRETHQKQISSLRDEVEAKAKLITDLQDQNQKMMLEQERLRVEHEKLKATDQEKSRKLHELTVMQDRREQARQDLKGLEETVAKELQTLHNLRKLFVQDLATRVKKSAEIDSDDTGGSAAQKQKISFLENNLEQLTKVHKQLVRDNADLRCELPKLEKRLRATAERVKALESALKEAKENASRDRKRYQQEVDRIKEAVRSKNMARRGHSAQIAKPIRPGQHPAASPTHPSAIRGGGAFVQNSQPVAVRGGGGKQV

SK-OV-3 [10] = test: Cell cycle arrest in human SKOV3 cells assessed as accumulation in S phase at 100 nM after 24 hrs by FACS analysis (reference value: 18.4%); type: functional
MCF7 [11] = test: Cell cycle arrest in human MCF7 cells assessed as accumulation in G2/M phase at 100 nM after 24 hrs by FACS analysis (reference value: 22.4%); type: functional
DU-145 [12] = test: Cell cycle arrest in human DU145 cells assessed as accumulation in S phase at 100 nM after 24 hrs by FACS analysis (reference value: 4.5%); type: functional
SK-OV-3 [13] = test: Cell cycle arrest in human SKOV3 cells assessed as accumulation in G0/G1 phase at 100 nM after 24 hrs by FACS analysis (reference value: 51.1%); type: functional
DU-145 [14] = test: Cell cycle arrest in human DU145 cells assessed as accumulation in G2/M phase at 100 nM after 24 hrs by FACS analysis (reference value: 31%); type: functional
DU-145 [15] = test: Cell cycle arrest in human DU145 cells assessed as accumulation in G0/G1 phase at 100 nM after 24 hrs by FACS analysis (reference value: 53.2%); type: functional
SK-OV-3 [16] = test: Cell cycle arrest in human SKOV3 cells assessed as monoaster phenotype at 100 nM after 22 hrs by confocal microscopic analysis; type: functional, cell-based
SK-OV-3 [17] = test: Cytotoxicity against human SKOV3 cells assessed as inhibition of KSP-mediated cell cycle progression after 44 hrs by BrdU incorporation assay; type: functional; conditions: SK-OV-3, 44 h
PC-3 [18] = test: Cytotoxicity against human PC3 cells assessed as inhibition of KSP-mediated cell cycle progression after 44 hrs by MTT assay; type: functional; conditions: PC-3, 44 h
SK-OV-3 [19] = test: Nonspecific cytotoxicity against human SKOV3 cells after 44 hrs by BrdU incorporation assay; type: functional; conditions: SK-OV-3, 44 h
DU-145 [20] = test: Cytotoxicity against human DU145 cells assessed as inhibition of KSP-mediated cell cycle progression after 44 hrs by MTT assay; type: functional; conditions: DU-145, 44 h
SK-OV-3 [21] = test: Cell cycle arrest in human SKOV3 cells assessed as absence of normal mitotic stages at 100 nM after 24 hrs by confocal microscopic analysis; type: functional, cell-based
MCF7 [22] = test: Cytotoxicity against human MCF7 cells assessed as inhibition of KSP-mediated cell cycle progression after 44 hrs by MTT assay; type: functional; conditions: MCF7, 44 h
SK-OV-3 [23] = test: Cell cycle arrest in human SKOV3 cells assessed as monoaster phenotype at 100 nM after 24 hrs by confocal microscopic analysis; type: functional, cell-based
SK-OV-3 [24] = test: Cytotoxicity against human SKOV3 cells assessed as inhibition of KSP-mediated cell cycle progression after 44 hrs by MTT assay; type: functional; conditions: SK-OV-3, 44 h

CC(C)[C@@H](c1nc2cc(Cl)ccc2c(=O)n1Cc1ccccc1)N(CCCN)C(=O)c1ccc(F)cc1 was tested, and the Activity (PC-3 [1]) was 31%, the Activity (PC-3 [2]) was 24.2% and the GI50 (MCF7 [3]) was 1100 nM. It also gave an Activity (MCF7 [4]) of 15.2%, an Activity (MCF7 [5]) of 51.3% and an Activity (SK-OV-3 [6]) of 2.6%. It also gave an Activity (SK-OV-3 [7]) of 22.5%, an Activity (PC-3 [8]) of 32.9% and an Activity [9] of 99.2%. The Activity (SK-OV-3 [10]) was 16.2%, the Activity (MCF7 [11]) was 22.8% and the Activity (DU-145 [12]) was 9.5%. The Activity (SK-OV-3 [13]) was 51.9%, the Activity (DU-145 [14]) was 27.7% and the Activity (DU-145 [15]) was 52.9%.

Compound Cc1ccc(C(=O)N(CCCN)[C@@H](c2nc3cc(Cl)ccc3c(=O)n2Cc2ccccc2)C(C)C)cc1 [ISPINESIB] has an Activity (PC-3 [1]) of 13.8%, an Activity (PC-3 [2]) of 10.1% and an Activity (MCF7 [4]) of 10.6%. The Activity (MCF7 [5]) was 22.1%, the Activity (SK-OV-3 [7]) was 51.3% and the Activity (PC-3 [8]) was 60.9%. The Activity [9] was 102%, the Activity (SK-OV-3 [10]) was 13.6% and the Activity (MCF7 [11]) was 57.2%. It also gave an Activity (DU-145 [12]) of 10.8%, an Activity (SK-OV-3 [13]) of 3.8% and an Activity (DU-145 [14]) of 49.8%. It also gave an Activity (DU-145 [15]) of 24.8%.

CC(C)[C@@H](c1nc2cc(Cl)ccc2c(=O)n1Cc1ccccc1)N(CCCN)C(=O)c1cccc(F)c1 gave a GI50 (MCF7 [3]) of 630 nM and an Activity [9] of 98.9%.

CC(C)[C@H](c1nc2cc(Cl)ccc2c(=O)n1Cc1ccccc1)N(CCCN)C(=O)c1ccc(F)cc1 was tested, and the Activity (SK-OV-3 [16]) was “Active”, the Activity (PC-3 [1]) was 12% and the GI50 (SK-OV-3 [17]) was 0.01 nM. The Activity (PC-3 [2]) was 11.1%, the GI50 (MCF7 [3]) was 2500 nM and the Activity (MCF7 [4]) was 12%. For the same compound, the GI50 (PC-3 [18]) was 0.5 nM, the GI50 (SK-OV-3 [19]) was 61000 nM and the Activity (MCF7 [5]) was 25.1%. It also gave an Activity (SK-OV-3 [6]) of 58.8%, a GI50 (DU-145 [20]) of 0.19 nM and an Activity (SK-OV-3 [7]) of 58.5%. For the same compound, the Activity (PC-3 [8]) was 63.6%, the Activity (SK-OV-3 [21]) was “Active” and the Activity [9] was 97.1%. The Activity (SK-OV-3 [10]) was 13.8%, the GI50 (MCF7 [22]) was 1 nM and the Activity (MCF7 [11]) was 53.2%. For the same compound, the Activity (SK-OV-3 [13]) was 3.5% and the Activity (SK-OV-3 [23]) was “Active”.

In the case of CC(C)[C@H](c1nc2cc(Cl)ccc2c(=O)n1Cc1ccccc1)N(CCCN)C(=O)c1ccccc1F, the GI50 (SK-OV-3 [24]) is reported as 34.8 nM, the Activity (SK-OV-3 [16]) is reported as “Active” and the GI50 (MCF7 [3]) is reported as 3000 nM. It also gave a GI50 (PC-3 [18]) of 7.8 nM, a GI50 (DU-145 [20]) of 10.7 nM and an Activity [9] of 97.2%. The GI50 (MCF7 [22]) was 4.2 nM.

With CC(C)C(c1nc2cc(Cl)ccc2c(=O)n1Cc1ccccc1)N(CCCN)C(=O)c1cccc(F)c1 (racemic) the GI50 (SK-OV-3 [24]) was 15.6 nM, the GI50 (MCF7 [3]) was 2900 nM and the GI50 (PC-3 [18]) was 17 nM. The GI50 (DU-145 [20]) was 4 nM, the Activity [9] was 99.1% and the GI50 (MCF7 [22]) was 5.1 nM.

CC(C)[C@@H](c1nc2cc(Cl)ccc2c(=O)n1Cc1ccccc1)N(CCCN)C(=O)c1ccccc1F showed a GI50 (MCF7 [3]) of 2000 nM and an Activity [9] of 97.9%.

Compound Cc1ccc(C(=O)N(CCCN)[C@H](c2nc3cc(Cl)ccc3c(=O)n2Cc2ccccc2)C(C)C)cc1 has an Activity (PC-3 [1]) of 34.4%, an Activity (PC-3 [2]) of 30% and an Activity (MCF7 [4]) of 17.6%. For the same compound, the Activity (MCF7 [5]) was 49.7%, the Activity (SK-OV-3 [7]) was 14.5% and the Activity (PC-3 [8]) was 25%. It also gave an Activity [9] of 96.8%, an Activity (SK-OV-3 [10]) of 16.6% and an Activity (MCF7 [11]) of 21.2%. The Activity (DU-145 [12]) was 10.3%, the Activity (SK-OV-3 [13]) was 49.8% and the Activity (DU-145 [14]) was 24.5%. It also gave an Activity (DU-145 [15]) of 53.7%.
